Consider 17 compounds from article PMC12637020, “Synthesis and biological evaluation of novel hydrazone derivatives for the treatment of Alzheimer's disease” (RSC Advances, 2025).

One experiment has as its target BChE enzyme (Homo sapiens, UniProt P06276). Kind of experiment: biochemical. Particulars: for inhibition at 1000 µM: read-out: BChE% inhibition 10^−3 M; for inhibition at 100 µM: read-out: BChE% inhibition 10^−4 M. From the text: (§1) The assay was completed in two steps.
(§2) The potential inhibitory effects of the obtained molecules on the AChE and BChE enzymes was examined using a variation of the Ellman method.[31,33,41–43] Distilled water from the Millipore/Milli-Q purification apparatus was utilized at every stage of the biological activity investigations during the evaluation process. In less than a week, all the solutions required for the biological investigation were meticulously prepared from scratch. A “BioTek-Precision Power (United States)” robotic pipetting system was utilized to distribute the prepared solutions and apply the test compounds and enzyme–substrate solutions to 96-well plates. The “BioTek-Synergy H1 Microplate Reader (United States)” was employed to establish and follow the enzyme protocol for spectrophotometric measurements. Solutions of the compounds were prepared at two different concentrations, 10^−3 M and 10^−4 M, using dimethylsulfoxide (DMSO) as 2% solution, and these were used in biological activity studies.

The target in a further experiment is AChE enzyme (Homo sapiens, UniProt P22303). As to the kind of experiment: biochemical. Particulars: for inhibition at 1000 µM: read-out: AChE% inhibition 10^−3 M; for inhibition at 100 µM: read-out: AChE% inhibition 10^−4 M; for IC50: tested at 10 to 0.001 µM. It is filed as biochemical.
AChE enzyme, sequence (P22303 32-614): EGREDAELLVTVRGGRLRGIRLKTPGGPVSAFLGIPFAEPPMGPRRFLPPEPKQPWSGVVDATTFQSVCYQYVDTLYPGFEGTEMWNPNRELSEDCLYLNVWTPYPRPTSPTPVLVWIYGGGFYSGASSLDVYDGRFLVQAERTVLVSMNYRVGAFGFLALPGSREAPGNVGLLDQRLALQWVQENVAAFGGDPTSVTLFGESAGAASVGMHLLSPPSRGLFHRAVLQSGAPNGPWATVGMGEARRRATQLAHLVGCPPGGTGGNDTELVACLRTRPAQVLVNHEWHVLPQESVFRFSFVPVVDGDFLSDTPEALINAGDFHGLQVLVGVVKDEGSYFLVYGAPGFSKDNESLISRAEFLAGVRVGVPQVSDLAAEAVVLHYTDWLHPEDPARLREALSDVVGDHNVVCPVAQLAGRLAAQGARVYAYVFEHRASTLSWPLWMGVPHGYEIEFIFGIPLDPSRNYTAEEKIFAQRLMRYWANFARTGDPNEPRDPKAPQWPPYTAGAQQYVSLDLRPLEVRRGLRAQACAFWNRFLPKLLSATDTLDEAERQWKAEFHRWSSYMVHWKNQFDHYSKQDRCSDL
Text: as §1, §2

BChE enzyme, sequence (P06276 29-602, species assumed): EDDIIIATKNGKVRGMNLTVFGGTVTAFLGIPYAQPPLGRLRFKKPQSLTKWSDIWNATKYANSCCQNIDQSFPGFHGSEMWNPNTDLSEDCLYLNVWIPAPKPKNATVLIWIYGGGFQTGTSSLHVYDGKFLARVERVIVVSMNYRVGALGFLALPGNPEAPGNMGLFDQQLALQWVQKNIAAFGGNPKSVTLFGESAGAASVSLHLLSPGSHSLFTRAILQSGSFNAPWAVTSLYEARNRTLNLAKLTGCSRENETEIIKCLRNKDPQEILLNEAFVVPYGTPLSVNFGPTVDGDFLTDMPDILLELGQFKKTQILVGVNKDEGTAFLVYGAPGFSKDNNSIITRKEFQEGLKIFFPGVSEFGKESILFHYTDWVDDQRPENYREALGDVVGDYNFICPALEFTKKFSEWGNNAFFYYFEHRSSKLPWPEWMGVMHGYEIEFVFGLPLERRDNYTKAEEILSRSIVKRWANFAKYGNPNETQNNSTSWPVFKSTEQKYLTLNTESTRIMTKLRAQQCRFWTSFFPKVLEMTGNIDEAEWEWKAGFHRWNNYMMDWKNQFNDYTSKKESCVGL

Consider `C=CCn1c(-c2ccc(F)cc2)csc1=NN=C(C)c1ccc(N2CCCCC2)cc1` [D2b, 3-Allyl-4-(4-fluorophenyl)-2-((1-(4-(piperidin-1yl)phenyl)ethylidene)hydrazineylidene)-2,3-dihydrothiazole], for which, at BChE enzyme, the IC50 (in general, the midpoint of a concentration-inhibition curve) is greater than 1000 µM; the inhibition (commonly the percentage by which the read-out fell short of the control) at 1000 µM amounted to 38.2 ± 1.66%; the inhibition at 100 µM worked out at 27.4 ± 1.25%. For the same compound, at AChE enzyme, the inhibition at 1000 µM was determined as 47.2 ± 2.17%, the inhibition at 100 µM amounted to 41.7 ± 1.96% and the IC50 was greater than 1000 µM.

As to `C=CCn1c(-c2ccc([N+](=O)[O-])cc2)csc1=NN=C(C)c1ccc(N2CCCCC2)cc1` [D2c, 3-Allyl-4-(4-nitrophenyl)-2-((1-(4-(piperidin-1-yl)phenyl)ethylidene)hydrazineylidene)-2,3-dihydrothiazole], at BChE enzyme, the IC50 was greater than 1000 µM, the inhibition at 1000 µM stood at 35 ± 1.14% and the inhibition at 100 µM was 30.7 ± 1.15%. In addition, at AChE enzyme, the inhibition at 1000 µM came out at 67 ± 1.85%, the inhibition at 100 µM amounted to 31.4 ± 0.932% and the IC50 was greater than 100 µM.

On to `C=CCn1c(-c2ccc(Cl)cc2)csc1=NN=C(C)c1ccc(N2CCCCC2)cc1` [D2d, 3-Allyl-4-(4-chlorophenyl)-2-((1-(4-(piperidin-1 yl)phenyl)ethylidene)hydrazineylidene)-2,3-dihydrothiazole], for which, on BChE enzyme, the IC50 was greater than 1000 µM, the inhibition at 1000 µM amounted to 30.5 ± 1.03% and the inhibition at 100 µM is 20 ± 0.926%. Moreover, at AChE enzyme, the inhibition at 1000 µM was 31.2 ± 1.32%, the inhibition at 100 µM was 28 ± 0.884% and the IC50 is greater than 1000 µM.

Regarding `C=CCn1c(-c2ccc(OC)cc2)csc1=NN=C(C)c1ccc(N2CCCCC2)cc1` [D2e, 3-Allyl-4-(4-methoxyphenyl)-2-((1-(4-(piperidin-1-yl)phenyl)ethylidene)hydrazineylidene)-2,3-dihydrothiazole], on BChE enzyme, the half-maximal inhibitory concentration (IC50) was greater than 1000 µM, the inhibition at 1000 µM was 25.7 ± 0.963% and the inhibition at 100 µM was determined as 17.2 ± 0.634%. Also, on AChE enzyme, the inhibition at 1000 µM came to 39.6 ± 1.76%, the inhibition at 100 µM turned out to be 25.3 ± 1.06% and the IC50 was greater than 1000 µM.

With `C=CCn1c(-c2ccc(C#N)cc2)csc1=NN=C(C)c1ccc(N2CCCCC2)cc1` [D2f, 4-(3-Allyl-2-((1-(4-(piperidin-1-yl)phenyl)ethylidene)hydrazineylidene)-2,3-dihydrothiazol-4-yl)benzonitrile], at BChE enzyme, the IC50 was greater than 1000 µM, the inhibition at 1000 µM amounted to 21.9 ± 0.855% and the inhibition at 100 µM amounted to 16.5 ± 0.578%. In addition, on AChE enzyme, the inhibition at 1000 µM stood at 76 ± 2.28%, the inhibition at 100 µM stood at 29.8 ± 1.26% and the IC50 was greater than 100 µM.

Consider `C=CCn1c(-c2ccc(Cl)cc2Cl)csc1=NN=C(C)c1ccc(N2CCCCC2)cc1` [D2g, 3-Allyl-4-(2,4-dichlorophenyl)-2-((1-(4-(piperidin-1-yl)phenyl)ethylidene)hydrazineylidene)-2,3-dihydrothiazole], for which, on BChE enzyme, the IC50 was greater than 1000 µM, the inhibition at 1000 µM amounted to 29.3 ± 1.35% and the inhibition at 100 µM was 24 ± 1.07%. Also, at AChE enzyme, the inhibition at 1000 µM amounted to 39.7 ± 1.88%, the inhibition at 100 µM is 31.6 ± 1.47% and the IC50 is greater than 1000 µM.

For the compound `C=CCn1c(-c2ccc(Cl)c(Cl)c2)csc1=N/N=C(\C)c1ccc(N2CCCCC2)cc1` [D2h, 3-Allyl-4-(3,4-dichlorophenyl)-2-(((E)-1-(4-(piperidin-1-yl)phenyl)ethylidene)hydrazineylidene)-2,3-dihydrothiazole], on BChE enzyme, the IC50 was greater than 1000 µM, the inhibition at 1000 µM worked out at 36.2 ± 1.36% and the inhibition at 100 µM came out at 31.5 ± 0.963%. Besides, on AChE enzyme, the inhibition at 1000 µM stood at 31.5 ± 1.04%, the inhibition at 100 µM worked out at 20.3 ± 0.989% and the IC50 is greater than 1000 µM.

Regarding `C=CCn1c(-c2ccc(C)cc2C)csc1=N/N=C(\C)c1ccc(N2CCCCC2)cc1` [D2i, 3-Allyl-4-(2,4-dimethylphenyl)-2-(((E)-1-(4-(piperidin-1-yl)phenyl)ethylidene)hydrazineylidene)-2,3-dihydrothiazole], at BChE enzyme, the IC50 was greater than 1000 µM, the inhibition at 1000 µM worked out at 42.1 ± 2.02% and the inhibition at 100 µM came to 28.7 ± 1.12%. Moreover, at AChE enzyme, the inhibition at 1000 µM came to 28.1 ± 1.25%, the inhibition at 100 µM came to 20.5 ± 0.862% and the half-maximal inhibitory concentration (IC50) was greater than 1000 µM.

Consider `CCn1c(-c2ccc(C)cc2)csc1=NN=C(C)c1ccc(N2CCCCC2)cc1` [D3a, 3-Ethyl-2-((1-(4-(piperidin-1-yl)phenyl)ethylidene)hydrazineylidene)-4-(p-tolyl)-2,3-dihydrothiazole], for which, on BChE enzyme, the IC50 is greater than 1000 µM, the inhibition at 1000 µM was determined as 45.4 ± 2.09% and the inhibition at 100 µM is 25.3 ± 1%. Also, at AChE enzyme, the inhibition at 1000 µM was 56.2 ± 1.75%, the inhibition at 100 µM was 37.5 ± 0.921% and the IC50 is greater than 100 µM.

In the case of `CCn1c(-c2ccc(F)cc2)csc1=NN=C(C)c1ccc(N2CCCCC2)cc1` [D3b, 3-Ethyl-4-(4-fluorophenyl)-2-((1-(4-(piperidin-1-yl)phenyl)ethylidene)hydrazineylidene)-2,3-dihydrothiazole], at BChE enzyme, the IC50 is greater than 1000 µM, the inhibition at 1000 µM is 32.6 ± 1.46% and the inhibition at 100 µM was 22.6 ± 0.964%. On AChE enzyme, the inhibition at 1000 µM came to 40.2 ± 1.85%, the inhibition at 100 µM was determined as 35.8 ± 1.25% and the IC50 was greater than 1000 µM.

As for `CCn1c(-c2ccc([N+](=O)[O-])cc2)csc1=NN=C(C)c1ccc(N2CCCCC2)cc1` [D3c, 3-Ethyl-4-(4-nitrophenyl)-2-((1-(4-(piperidin-1 yl)phenyl)ethylidene)hydrazineylidene)-2,3-dihydrothiazole], on BChE enzyme, the IC50 was greater than 1000 µM, the inhibition at 1000 µM came to 33.9 ± 1.54% and the inhibition at 100 µM came to 27.3 ± 1.16%. For the same compound, at AChE enzyme, the inhibition at 1000 µM stood at 42.8 ± 2.04%, the inhibition at 100 µM is 38.2 ± 1.74% and the IC50 was greater than 1000 µM.

Consider `CCn1c(-c2ccc(Cl)cc2)csc1=NN=C(C)c1ccc(N2CCCCC2)cc1` [D3d, 4-(4-Chlorophenyl)-3-ethyl-2-((1-(4-(piperidin-1-yl)phenyl)ethylidene)hydrazineylidene)-2,3-dihydrothiazole], for which, at BChE enzyme, the IC50 was greater than 1000 µM, the inhibition at 1000 µM was found to be 37.5 ± 1.46% and the inhibition at 100 µM came out at 21.3 ± 1.07%. Also, at AChE enzyme, the inhibition at 1000 µM came out at 32.3 ± 1.44%, the inhibition at 100 µM is 23.3 ± 1.05% and the IC50 was greater than 1000 µM.

Turning to `CCn1c(-c2ccc(OC)cc2)csc1=NN=C(C)c1ccc(N2CCCCC2)cc1` [D3e, 3-Ethyl-4-(4-methoxyphenyl)-2-((1-(4-(piperidin-1-yl)phenyl)ethylidene)hydrazineylidene)-2,3-dihydrothiazole], at BChE enzyme, the IC50 was greater than 1000 µM, the inhibition at 1000 µM was 36.3 ± 1.42% and the inhibition at 100 µM was determined as 30.3 ± 0.956%. Moreover, on AChE enzyme, the inhibition at 1000 µM stood at 34.1 ± 1.57%, the inhibition at 100 µM was found to be 21.6 ± 0.926% and the IC50 was greater than 1000 µM.

Take `CCn1c(-c2ccc(C#N)cc2)csc1=NN=C(C)c1ccc(N2CCCCC2)cc1` [D3f, 4-(-3-Ethyl-2-((-1-(4-(piperidin-1-yl)phenyl)ethylidene)hydrazineylidene)-2,3-dihydrothiazol-4-yl)benzonitrile]: at BChE enzyme, the IC50 was greater than 1000 µM, the inhibition at 1000 µM was found to be 30.2 ± 1.05% and the inhibition at 100 µM was 21.1 ± 0.947%. For the same compound, on AChE enzyme, the inhibition at 1000 µM is 57.4 ± 1.72%, the inhibition at 100 µM worked out at 25.4 ± 0.856% and the 50% inhibitory concentration (IC50) is greater than 100 µM.

Regarding `CCn1c(-c2ccc(Cl)cc2Cl)csc1=NN=C(C)c1ccc(N2CCCCC2)cc1` [D3g, 4-(2,4-Dichlorophenyl)-3-ethyl-2-((1-(4-(piperidin-1 yl)phenyl)ethylidene)hydrazineylidene)-2,3-dihydrothiazole], at BChE enzyme, the IC50 is greater than 1000 µM, the inhibition at 1000 µM was found to be 33.5 ± 1.26% and the inhibition at 100 µM stood at 26.8 ± 1.06%. Besides, at AChE enzyme, the inhibition at 1000 µM came to 26.7 ± 1.15%, the inhibition at 100 µM came to 20.9 ± 0.884% and the IC50 is greater than 1000 µM.

On to `CCn1c(-c2ccc(Cl)c(Cl)c2)csc1=NN=C(C)c1ccc(N2CCCCC2)cc1` [D3h, 4-(3,4-Dichlorophenyl)-3-ethyl-2-((1-(4-(piperidin-1 yl)phenyl)ethylidene)hydrazineylidene)-2,3-dihydrothiazole], for which, at BChE enzyme, the IC50 was greater than 1000 µM, the inhibition at 1000 µM was 38.7 ± 1.32% and the inhibition at 100 µM is 32.5 ± 1.13%. Further, at AChE enzyme, the inhibition at 1000 µM came out at 28.4 ± 1.25%, the inhibition at 100 µM was 23.7 ± 0.969% and the IC50 was greater than 1000 µM.

For `CCn1c(-c2ccc(C)cc2C)csc1=NN=C(C)c1ccc(N2CCCCC2)cc1` [D3i, 4-(2,4-Dimethylphenyl)-3-ethyl-2-((1-(4-(piperidin-1-yl)phenyl)ethylidene)hydrazineylidene)-2,3-dihydrothiazole], on BChE enzyme, the IC50 was greater than 1000 µM, the inhibition at 1000 µM was determined as 31.5 ± 1.04% and the inhibition at 100 µM is 24.1 ± 0.858%. Besides, at AChE enzyme, the inhibition at 1000 µM stood at 40.9 ± 1.59%, the inhibition at 100 µM amounted to 22.1 ± 0.962% and the IC50 is greater than 1000 µM.
